# US7635706B2, “5HT4-antagonistic 4-(aminomethyl)-piperidine benzamides” (Janssen Pharmaceutica NV, priority 2003, dated 2009)
# Molecular target: T1, h5-HT4b (Homo sapiens, UniProt Q13639)
# T1 construct: expressed in transfected cells; host or cells: HEK 293 (clone 9), membrane preparation
# Experiment: 5HT4 antagonism: [3H]GR113808 binding to membranes of h5-HT4b-HEK 293 clone 9 cells
# Details: [3H]GR113808 0.1 nM, h5-HT4b-HEK 293 membranes, 30 min at 25° C.
# Description: h5-HT4b-HEK 293 clone 9 cells were cultured in 150 mm Petri dishes and washed twice with cold PBS. The cells were then scraped from the plates and suspended in 50 mM Tris-HCl buffer, pH 7.4 and harvested by centrifugation at 23,500 rpm for 10 minutes. The pellet was resuspended in 5 mM Tris-HCl, pH 7.4 and homogenized with an Ultra Turrax homogenizer. The membranes were collected by centrifugation at 30,000 rpm for 20 min, resuspended in 50 mM Tris-HCl pH 7.4 and stored at −80° C. For the experiment, assay mixtures (0.5 ml) contained 50 μl of the tritiated ligand (5-HT4 antagonist [^3H]GR113808 0.1 nM) and 0.4 ml membrane preparation (15 μg protein/ml). 50 μl of 10% DMSO was added for total binding. 50 μl of 1 μM of (+)-trans-(1-butyl-3-hydroxy4-piperidinyl)methyl 8-amino-7-chloro-2,3-dihydro-1,4-benzodioxin-5-carboxylate (a proprietary 5HT4 agonist of Janssen Pharmaceutica) was added for determination of non-specific binding.
# The [^3H]GR113808 assay buffer was 50 mM HEPES-NaOH, pH 7.4. The mixtures were incubated for 30 min at 25° C. The incubation was terminated by filtration over a Unifilter 96 GF/B presoaked in 0.1% polyethylenimine, followed by six washing steps with 50 mM HEPES-NaOH, pH 7.4.
# T1 sequence (Q13639 whole entry): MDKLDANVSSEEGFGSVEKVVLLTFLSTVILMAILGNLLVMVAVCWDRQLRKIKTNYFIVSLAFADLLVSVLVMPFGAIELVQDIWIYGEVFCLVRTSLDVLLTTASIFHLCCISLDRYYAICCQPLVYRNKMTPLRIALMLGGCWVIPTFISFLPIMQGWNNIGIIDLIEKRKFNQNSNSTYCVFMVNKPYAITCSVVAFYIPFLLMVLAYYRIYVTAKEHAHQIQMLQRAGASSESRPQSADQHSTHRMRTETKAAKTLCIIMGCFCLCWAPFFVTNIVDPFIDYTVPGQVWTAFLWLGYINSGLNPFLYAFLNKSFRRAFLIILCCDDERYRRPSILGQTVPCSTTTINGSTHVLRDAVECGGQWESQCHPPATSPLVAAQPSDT
row,SMILES,IC50 [nM]
1,Cc1ccc(C(=O)NC[C@@H]2CCN(CCCO)C[C@H]2O)c2c1OCCCO2 [compound 3],1.7
2,CNCCCCN1CC[C@@H](CNC(=O)c2ccc(C)c3c2OCCCO3)[C@H](O)C1 [compound 4],6.92
3,COc1c(Cl)cc(C(=O)NC[C@@H]2CCN(CCCO)C[C@H]2O)c2c1OCCO2 [compound 5],5.5
4,COCCCN1CC[C@@H](CNC(=O)c2cc(Cl)c(OC)c3c2OCCO3)[C@H](O)C1 [compound 6],6.46
5,COc1c(Cl)cc(C(=O)NC[C@@H]2CCNC[C@H]2O)c2c1OCCO2 [compound 8],77.6
6,COc1c(Cl)cc(C(=O)NC[C@@H]2CCN(CC3OCCO3)C[C@H]2O)c2c1OCCO2 [compound 9],7.94
7,N#CCCCN1CC[C@@H](CNC(=O)c2cc(Cl)c(Br)c3c2OCCCO3)[C@H](O)C1 [compound 10],3.02
8,O=C(NC[C@@H]1CCNC[C@H]1O)c1cc(Cl)c(Br)c2c1OCCCO2 [compound 11],5.89
9,COc1c(Cl)cc(C(=O)NC[C@@H]2CCNC[C@H]2O)c2c1OCCCO2 [compound 12],43.7
10,COc1c(Cl)cc(C(=O)NC[C@@H]2CCN(CCCO)C[C@H]2O)c2c1OCCCO2 [compound 13],5.37
11,COCCCN1CC[C@@H](CNC(=O)c2cc(Cl)c(OC)c3c2OCCCO3)[C@H](O)C1 [compound 14],2.63
12,COc1c(Cl)cc(C(=O)NC[C@@H]2CCN(CCOCCO)C[C@H]2O)c2c1OCCO2 [compound 15],9.55
13,CCCCN1CC[C@@H](CNC(=O)c2cc(Cl)c(OC)c3c2OCCCO3)[C@H](O)C1 [compound 17],3.8
14,COc1c(Cl)cc(C(=O)NC[C@@H]2CCN(CC3OCCO3)C[C@H]2O)c2c1OCCCO2 [compound 18],24
15,O=C(NC[C@@H]1CCN(CCCO)C[C@H]1O)c1cc(Cl)c(Cl)c2c1OCCCO2 [compound 19],2.69
16,O=C(NC[C@@H]1CCNC[C@H]1O)c1cc(Cl)c(Cl)c2c1OCCCO2 [compound 20],3.63
17,O=C(NC[C@@H]1CCN(CCOCCO)C[C@H]1O)c1cc(Cl)c(Cl)c2c1OCCCO2 [compound 21],3.89
18,CCCCN1CC[C@@H](CNC(=O)c2cc(Cl)c(Br)c3c2OCCCO3)[C@H](O)C1 [compound 22],1.41
19,COc1c(Cl)cc(C(=O)NC[C@@H]2CCN(CCOCCO)C[C@H]2O)c2c1OCCCO2 [compound 23],17.4
20,O=C(NC[C@@H]1CCN(CCCO)C[C@H]1O)c1cc(Cl)c(Br)c2c1OCCCO2 [compound 24],1.78
21,O=C(NC[C@@H]1CCN(CCOCCO)C[C@H]1O)c1cc(Cl)c(Br)c2c1OCCCO2 [compound 25],3.09
22,O=C(NC[C@@H]1CCN(CC2OCCO2)C[C@H]1O)c1cc(Cl)c(Br)c2c1OCCCO2 [compound 26],6.31
23,O=C(NC[C@@H]1CCN(CCC2OCCO2)C[C@H]1O)c1cc(Cl)c(Br)c2c1OCCCO2 [compound 27],4.9
24,CO[C@@H]1CN(CCCC#N)CC[C@H]1CNC(=O)c1cc(Cl)c(Br)c2c1OCCCO2 [compound 28],6.31

row,SMILES,IC50 [nM]
1,COc1c(Cl)cc(C(=O)NC[C@@H]2CCN(CCC3OCCO3)C[C@H]2O)c2c1OCCCO2 [compound 29],6.46
2,COc1c(Cl)cc(C(=O)NC[C@@H]2CCN(CCCC#N)C[C@H]2O)c2c1OCCO2 [compound 30],12.6
3,COc1c(Cl)cc(C(=O)NC[C@@H]2CCN(CCC3OCCO3)C[C@H]2O)c2c1OCCO2 [compound 31],7.08
4,COc1c(Cl)cc(C(=O)NC[C@@H]2CCN(CC3CCCO3)C[C@H]2O)c2c1OCCO2 (stereo partly shown) [compound 32],8.71
5,COc1c(Cl)cc(C(=O)NC[C@@H]2CCN(CC3CCCO3)C[C@H]2O)c2c1OCCCO2 (stereo partly shown) [compound 33],1.2
6,COc1c(Cl)cc(C(=O)NC[C@@H]2CCN(CCCC#N)C[C@H]2O)c2c1OCCCO2 [compound 34],1
7,CO[C@@H]1CNCC[C@H]1CNC(=O)c1cc(Cl)c(Br)c2c1OCCCO2 [compound 35],23.4
8,CNCCCN1CC[C@@H](CNC(=O)c2cc(Cl)c(OC)c3c2OCCCO3)[C@H](O)C1 [compound 36],38
9,COCCCN1CC[C@@H](CNC(=O)c2cc(Cl)c(Cl)c3c2OCCCO3)[C@H](O)C1 [compound 37],3.89
10,COCCCN1CC[C@@H](CNC(=O)c2cc(Cl)c(Br)c3c2OCCCO3)[C@H](O)C1 [compound 38],2.95
11,O=C(NC[C@@H]1CCN(CC2CCCO2)C[C@H]1O)c1cc(Cl)c(Br)c2c1OCCCO2 (stereo partly shown) [compound 39],3.89
12,CNCCCCN1CC[C@@H](CNC(=O)c2cc(Cl)c(OC)c3c2OCCCO3)[C@H](O)C1 [compound 40],14.1
13,COc1c(Cl)cc(C(=O)NC[C@@H]2CCN(CC3CCCO3)C[C@H]2OC)c2c1OCCO2 (stereo partly shown) [compound 41],16.2
14,CNCCN1CC[C@@H](CNC(=O)c2cc(Cl)c(Br)c3c2OCCCO3)[C@H](O)C1 [compound 42],27.5
15,CNCCCCN1CC[C@@H](CNC(=O)c2cc(Cl)c(OC)c3c2OCCO3)[C@H](O)C1 [compound 43],23.4
16,CNCCCN1CC[C@@H](CNC(=O)c2cc(Cl)c(OC)c3c2OCCO3)[C@H](O)C1 [compound 44],28.8
17,CO[C@@H]1CN(CCCO)CC[C@H]1CNC(=O)c1cc(Cl)c(Br)c2c1OCCCO2 [compound 45],7.41
18,CO[C@@H]1CN(CCC2OCCO2)CC[C@H]1CNC(=O)c1cc(Cl)c(Br)c2c1OCCCO2 [compound 46],6.03
19,CNCCN1CC[C@@H](CNC(=O)c2cc(Cl)c(Br)c3c2OCCCO3)[C@H](OC)C1 [compound 48],57.5
20,CO[C@@H]1CNCC[C@H]1CNC(=O)c1cc(Cl)c(Cl)c2c1OCCCO2 [compound 49],8.13
21,CO[C@@H]1CN(CC2CCCO2)CC[C@H]1CNC(=O)c1cc(Cl)c(Br)c2c1OCCCO2 (stereo partly shown) [compound 50],4.37
22,CO[C@@H]1CN(CCOCCO)CC[C@H]1CNC(=O)c1cc(Cl)c(Br)c2c1OCCCO2 [compound 51],5.13
23,COc1c(Cl)cc(C(=O)NC[C@@H]2CCNC[C@H]2OC)c2c1OCCO2 [compound 52],457
24,COc1c(Cl)cc(C(=O)NC[C@@H]2CCN(CCCO)C[C@H]2OC)c2c1OCCO2 [compound 53],20

row,SMILES,IC50 [nM]
1,COCCCN1CC[C@@H](CNC(=O)c2cc(Cl)c(Br)c3c2OCCCO3)[C@H](OC)C1 [compound 54],4.9
2,COc1c(Cl)cc(C(=O)NC[C@@H]2CCN(CCOCCO)C[C@H]2OC)c2c1OCCO2 [compound 55],166
3,CO[C@@H]1CN(CCCC#N)CC[C@H]1CNC(=O)c1cc(Cl)c(Cl)c2c1OCCCO2 [compound 56],3.89
4,COc1c(Cl)cc(C(=O)NC[C@@H]2CCN(CCCO)C[C@H]2OC)c2c1OCCCO2 [compound 57],36.3
5,CCCCN1CC[C@@H](CNC(=O)c2cc(Cl)c(Br)c3c2OCCCO3)[C@H](OC)C1 [compound 58],2.34
6,COCCCN1CC[C@@H](CNC(=O)c2cc(Cl)c(Cl)c3c2OCCCO3)[C@H](OC)C1 [compound 59],3.72
7,COc1c(Cl)cc(C(=O)NC[C@@H]2CCN(CCn3ccn(C(C)C)c3=O)C[C@H]2O)c2c1OCCO2 [compound 60],35.5
8,CNCCCCN1CC[C@@H](CNC(=O)c2cc(Cl)c(OC)c3c2OCCCO3)[C@H](OC)C1 [compound 61],85.1
9,CNCCCN1CC[C@@H](CNC(=O)c2cc(Cl)c(OC)c3c2OCCCO3)[C@H](OC)C1 [compound 62],490
10,CNCCCN1CC[C@@H](CNC(=O)c2cc(Cl)c(Br)c3c2OCCCO3)[C@H](OC)C1 [compound 63],9.77
11,CNCCCCN1CC[C@@H](CNC(=O)c2cc(Cl)c(Br)c3c2OCCCO3)[C@H](O)C1 [compound 64],1.55
12,CNCCCCN1CC[C@@H](CNC(=O)c2cc(Cl)c(Br)c3c2OCCCO3)[C@H](OC)C1 [compound 65],4.47
13,COc1c(Cl)cc(C(=O)NC[C@@H]2CCN(CC3OCCO3)C[C@H]2OC)c2c1OCCCO2 [compound 66],132
14,COCCCN1CC[C@@H](CNC(=O)c2cc(Cl)c(OC)c3c2OCCCO3)[C@H](OC)C1 [compound 67],22.4
15,COc1c(Cl)cc(C(=O)NC[C@@H]2CCN(CCOCCO)C[C@H]2OC)c2c1OCCCO2 [compound 68],93.3
16,COc1c(Cl)cc(C(=O)NC[C@@H]2CCN(CCCC#N)C[C@H]2OC)c2c1OCCCO2 [compound 69],79.4
17,COc1c(Cl)cc(C(=O)NC[C@@H]2CCN(CCn3ccn(C(C)C)c3=O)C[C@H]2OC)c2c1OCCO2 [compound 70],263
18,CCCCN1CC[C@@H](CNC(=O)c2cc(Cl)c(OC)c3c2OCCCO3)[C@H](OC)C1 [compound 71],10.7
19,COc1c(Cl)cc(C(=O)NC[C@@H]2CCN(CCC3OCCO3)C[C@H]2OC)c2c1OCCCO2 [compound 72],21.4
20,COc1c(Cl)cc(C(=O)NC[C@@H]2CCN(CC3CCCO3)C[C@H]2OC)c2c1OCCCO2 (stereo partly shown) [compound 73],18.2
21,CNCCCN1CC[C@@H](CNC(=O)c2cc(Cl)c(Cl)c3c2OCCCO3)[C@H](OC)C1 [compound 74],5.37
22,CO[C@@H]1CN(CCCO)CC[C@H]1CNC(=O)c1cc(Cl)c(Cl)c2c1OCCCO2 [compound 75],3.09
